Assay results from patent publication US20060194805A1, “Capsaicin receptor agonists” (Neurogen Corporation, priority 2003, published 2006).

The compounds below were run against T1, human capsaicin receptor (Homo sapiens, UniProt Q8NER1) (assay: Calcium mobilization assay (determination of agonist activity), Example 7). Settings: HEK293 cells expressing human capsaicin receptor, FLUO-3 calcium fluorescence; read-out: EC50, capsaicin receptor agonist activity as described in Example 7.
T1 construct: transfected with the pBK-CMV expression construct encoding the full length human capsaicin receptor; expressed in transfected cells
Type: cell-based
Text: A cDNA encoding full length human capsaicin receptor (SEQ ID NO:1, 2 or 3 of U.S. Pat. No. 6,482,611) was subcloned in the plasmid pBK-CMV (Stratagene, La Jolla, Calif.) for recombinant expression in mammalian cells.
Human embryonic kidney (HEK293) cells were transfected with the pBK-CMV expression construct encoding the full length human capsaicin receptor using standard methods. […] Independent clones were isolated from this pool by limiting dilution to obtain clonal stable cell lines for use in subsequent experiments.
The culture medium is emptied from the 96 well plates and FLUO-3 AM calcium sensitive dye (Molecular Probes, Eugene, Oreg.) is added to each well (dye solution: 1 mg FLUO-3 AM, 440 μL DMSO and 440 μl 20% pluronic acid in DMSO, diluted 1:250 in Krebs-Ringer HEPES (KRH) buffer (25 mM HEPES, 5 mM KCl, 0.96 mM NaH2PO4, 1 mM MgSO4, 2 mM CaCl2, 5 mM glucose, 1 mM probenecid, pH 7.4), 50 μl diluted solution per well). Plates are covered with aluminum foil and incubated at 37° C. for 1-2 hours in an environment containing 5% CO2.
To measure the ability of a test compound to agonize or antagonize a calcium mobilization response in cells expressing capsaicin receptors to capsaicin or other vanilloid agonist, the EC50 of the agonist capsaicin is first determined. An additional 20 μl of KRH buffer and 1 μl DMSO is added to each well of cells, prepared as described above. 100 μl capsaicin in KRH buffer is automatically transferred by the FLIPR instrument to each well. Capsaicin-induced calcium mobilization is monitored using either FLUOROSKAN ASCENT (Labsystems; Franklin, Mass.) or FLIPR (fluorometric imaging plate reader system; Molecular Devices, Sunnyvale, Calif.) instruments. Data obtained between 30 and 60 seconds after agonist application are used to generate an 8-point concentration response curve, with final capsaicin concentrations of 1 nM to 3 μM. […] software (Synergy Software, Reading, Pa.) is used to fit the data to the equation: y=a*(1/(1+(b/x)c)) to determine the 50% excitatory concentration (EC50) for the response. In this equation, y is the maximum fluorescence signal, x is the concentration of the agonist or antagonist (in this case, capsaicin), a is the Emax, b corresponds to the EC50 value and c is the Hill coefficient. Determination of Agonist Activity
Test compounds are dissolved in DMSO, diluted in KRH buffer, and immediately added to cells prepared as described above. […] The final concentration of test compounds in the assay wells is between 0.1 nM and 5 μM.
The ability of a test compound to act as an agonist of the capsaicin receptor is determined by measuring the fluorescence response of cells expressing capsaicin receptors elicited by the compound as function of compound concentration.

T1 sequence (Q8NER1 whole entry): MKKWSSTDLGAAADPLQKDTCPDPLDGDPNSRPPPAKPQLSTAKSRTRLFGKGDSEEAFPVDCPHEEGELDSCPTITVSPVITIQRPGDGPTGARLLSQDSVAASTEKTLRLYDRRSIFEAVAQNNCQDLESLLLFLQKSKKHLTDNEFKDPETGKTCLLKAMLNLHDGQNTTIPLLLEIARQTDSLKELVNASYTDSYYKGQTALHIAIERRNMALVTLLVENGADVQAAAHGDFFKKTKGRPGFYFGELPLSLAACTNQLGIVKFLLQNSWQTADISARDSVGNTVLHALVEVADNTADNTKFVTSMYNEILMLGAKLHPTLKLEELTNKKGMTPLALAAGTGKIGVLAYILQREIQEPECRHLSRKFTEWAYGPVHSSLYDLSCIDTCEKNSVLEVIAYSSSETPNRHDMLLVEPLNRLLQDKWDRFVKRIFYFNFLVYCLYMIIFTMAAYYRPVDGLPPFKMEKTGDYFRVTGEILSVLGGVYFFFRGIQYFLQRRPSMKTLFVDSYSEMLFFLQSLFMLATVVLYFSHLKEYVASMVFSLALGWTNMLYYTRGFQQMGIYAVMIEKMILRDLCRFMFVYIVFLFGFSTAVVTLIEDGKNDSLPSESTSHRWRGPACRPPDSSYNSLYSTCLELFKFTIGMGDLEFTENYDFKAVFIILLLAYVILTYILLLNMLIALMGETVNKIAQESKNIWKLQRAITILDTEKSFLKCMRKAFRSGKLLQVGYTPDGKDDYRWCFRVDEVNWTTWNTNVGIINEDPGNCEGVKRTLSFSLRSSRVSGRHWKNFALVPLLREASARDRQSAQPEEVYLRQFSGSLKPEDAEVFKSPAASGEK

EC50	SMILES
< 1000 nM	C[C@@H]1CN(Cc2nc(Nc3ccc(C(C)(C)C)cc3)c3ccc(C(F)(F)F)cc3n2)C[C@H](C)O1 [Compound 3, (4-t-butyl-phenyl)-[2-(cis-2,6-dimethyl-morpholin-4-ylmethyl)-7-trifluoromethyl-quinazolin-4-yl)-amine]
< 1000 nM	CC(C)(C)c1cc(Nc2ncnc3cc(Br)cnc23)no1 [Compound 2]
< 1000 nM	CCCn1c(CN(Cc2ccc(Cl)cc2Cl)Cc2c(OCC)ccc3ccccc23)nc2cc(F)ccc21 [Compound 55]
< 1000 nM	FC(F)(F)c1ccc(Nc2ncnc3cc(Br)ccc23)nc1 [Compound 1, (7-bromo-quinazolin-4-yl)-(5-trifluoromethyl-pyridin-2-yl)-amine]
< 1000 nM	O=C(NCc1ccccc1)c1cc(-c2cccc(Cl)c2)nc2ccncc12 [Compound 65, 2-(3-chloro-phenyl)-[1, 6]-naphthyridine-4-carboxylic acid benzylamide]

Same assay, conditions: capsaicin positive control, calcium mobilization; read-out: approximate EC90 concentration

EC90	SMILES
~100 nM	COc1cc(CNC(=O)CCCC/C=C/C(C)C)ccc1O [capsaicin]
